Reference: patent publication US6133294A (priority 1999, dated 2000)

Columns and labels:
Format in all cases: in vivo
Erysiphe graminis = assay: Powdery Mildew of Wheat (Erysiphe graminis--ERYSGT); conditions: wheat (cultivar Monon), 100 ppm spray to run off, inoculated after 24 hours; for pest or weed control at 100 ppm: Blumeria graminis, 1DP, read-out: control of plant disease, ERYSGT 1DP
Protocol: (§1) Compound Formulation: Compound formulation was accomplished by dissolving technical materials in acetone, with serial dilutions then made in acetone to obtain desired rates. Final treatment volumes were obtained by adding nine volumes 0.05% aqueous Tween-20 or Triton X-100, depending upon the pathogen.
Powdery Mildew of Wheat (Erysiphe graminis--ERYSGT): Wheat (cultivar Monon) was grown in a soilless peat-based potting mixture (Metromix) until the seedlings were 1-2 leaf (BBCH 12). These plants were then sprayed to run off with the test compound at a rate of 100 ppm. After 24 hours the test plants were inoculated with Erysiphe graminis by dusting spores from stock plants onto the test plants. The plants were then transferred to the greenhouse until disease developed on the untreated control plants.
(§2) the following table presents the activity of typical compounds of the present invention when evaluated in these experiments. The effectiveness of the test compounds in controlling disease was rated using the following scale: […]

Leptosphaeria nodorum = assay: Glume blotch of wheat (Leptosphaeria nodorum--LEPTNO); conditions: wheat (cultivar Monon), 100 ppm spray to run off, inoculated after 24 hours; for pest or weed control at 100 ppm: Parastagonospora nodorum, 1DP, read-out: control of plant disease, LEPTNO 1DP
Protocol: as §1
(§3) Glume blotch of wheat (Leptosphaeria nodorum--LEPTNO): Wheat (cultivar Monon) was grown from seed in a soilless peat-based potting mixture (Metromix) until the seedlings were 1-2 leaf (BBCH 12). These plants were then sprayed to run off with the test compound at a rate of 100 ppm. After 24 hours the test plants were inoculated with an aqueous spore suspension of Leptosphaeria nodorum. The plants were then transferred to the greenhouse until disease developed on the untreated control plants.
as §2

Phytophthora infestans = assay: whole plant or invertebrate; conditions: for pest or weed control at 100 ppm: Phytophthora infestans, 24 h, read-out: control of plant disease, PHYTIN 1DP; for control of plant disease, PHYTIN 1DP: tomatoes (cultivar Rutgers), 100 ppm spray to run off, inoculated after 24 hours
Puccinia recondita = assay: Brown rust (Puccinia recondita--PUCCRT); conditions: wheat (cultivar Monon), 100 ppm spray to run off, inoculated after 24 hours; for pest or weed control at 100 ppm: Puccinia recondita, 1DP, read-out: control of plant disease, PUCCRT 1DP
Protocol: as §1
as §3, with “Brown rust (Puccinia recondita--PUCCRT):” for “Glume blotch of wheat (Leptosphaeria nodorum--LEPTNO):”, “[…]).” for “1-2 leaf (BBCH 12).”, “Puccinia recondita.” for “Leptosphaeria nodorum.”
as §2

| Structure (SMILES) | pest or weed control at 100 ppm (Erysiphe graminis) | pest or weed control at 100 ppm (Leptosphaeria nodorum) | pest or weed control at 100 ppm (Phytophthora infestans) | pest or weed control at 100 ppm (Puccinia recondita) | control of plant disease, ERYSGT 1DP (Erysiphe graminis) | control of plant disease, LEPTNO 1DP (Leptosphaeria nodorum) | control of plant disease, PHYTIN 1DP (Phytophthora infestans) | control of plant disease, PUCCRT 1DP (Puccinia recondita) |
| --- | --- | --- | --- | --- | --- | --- | --- | --- |
| CNC(=O)C(=NOC)c1ccccc1COc1ncc(-c2nc(C(F)(F)F)no2)cc1Cl [Example 68] | 75 to 100% | 75 to 100% | 0 to 24% | 75 to 100% | – | – | – | – |
| CNC(=O)C(=NOC)c1ccccc1COc1ccc(-c2noc(C)n2)cn1 [Example 10] | 75 to 100% | 75 to 100% | 0 to 24% | 75 to 100% | – | – | – | – |
| CCc1noc(-c2nc(OCc3ccccc3C(=NOC)C(=O)NC)ccc2Cl)n1 [Example 81] | 75 to 100% | 25 to 74% | 25 to 74% | 75 to 100% | – | – | – | – |
| CNC(=O)C(=NOC)c1ccccc1COc1ccc(-c2nc(CC(C)C)no2)cn1 [Example 75] | 75 to 100% | 25 to 74% | 0 to 24% | 75 to 100% | – | – | – | – |
| CNC(=O)C(=NOC)c1ccccc1COc1ncc(-c2nnc(C)o2)cc1Cl [Example 3] | 75 to 100% | 75 to 100% | 75 to 100% | 75 to 100% | – | – | – | – |
| CNC(=O)C(=NOC)c1cccc(Cl)c1COc1cccc(-c2nc(C(C)(C)C)no2)n1 [Example 86] | – | – | – | – | ++ (75-100% control of plant disease) | - (0-24% control of plant disease) | + (25-74% control of plant disease) | ++ (75-100% control of plant disease) |
| CCc1cc(-c2cnc(OCc3ccccc3C(=NOC)C(=O)NC)c(Cl)c2)no1 [Example 39] | 75 to 100% | 75 to 100% | 0 to 24% | 75 to 100% | – | – | – | – |
| CNC(=O)C(=NOC)c1ccccc1COc1ncc(-c2noc(-c3cccs3)n2)cc1Cl [Example 20] | 75 to 100% | 0 to 24% | 75 to 100% | 75 to 100% | – | – | – | – |
| CNC(=O)C(=NOC)c1ccccc1COc1cccc(-c2nc(C(C)(C)C)no2)n1 [Example 84] | 25 to 74% | 75 to 100% | 75 to 100% | 75 to 100% | – | – | – | – |
| CNC(=O)C(=NOC)c1ccccc1COc1ncc(-c2noc(-c3ccco3)n2)cc1Cl [Example 18] | 25 to 74% | 75 to 100% | 75 to 100% | 75 to 100% | – | – | – | – |
| CCc1noc(-c2cnc(OCc3ccccc3C(=NOC)C(=O)OC)c(Cl)c2)n1 [Example 101] | 75 to 100% | 25 to 74% | 75 to 100% | 75 to 100% | – | – | – | – |
| CNC(=O)C(=NOC)c1cccc(C)c1COc1ncc(-c2noc(C(F)(F)F)n2)cc1Cl [Example 35] | – | – | – | – | ++ (75-100% control of plant disease) | ++ (75-100% control of plant disease) | - (0-24% control of plant disease) | ++ (75-100% control of plant disease) |
| CNC(=O)C(=NOC)c1ccccc1COc1ccc(-c2cc(C(C)(C)C)on2)cn1 [Example 43] | 75 to 100% | 75 to 100% | 75 to 100% | 75 to 100% | – | – | – | – |
| CCc1noc(-c2cnc(OCc3ccccc3C(=COC)C(=O)OC)c(Cl)c2)n1 [Example 99] | 75 to 100% | 75 to 100% | 25 to 74% | 75 to 100% | – | – | – | – |
| CNC(=O)C(=NOC)c1ccccc1COc1ncc(-c2noc(-c3ccccc3)n2)cc1Cl [Example 7] | 75 to 100% | 75 to 100% | 75 to 100% | 75 to 100% | – | – | – | – |
| CNC(=O)C(=NOC)c1ccccc1COc1ncc(-c2cc(C(C)C)on2)cc1Cl [Example 38] | 75 to 100% | 75 to 100% | 0 to 24% | 75 to 100% | – | – | – | – |
